Measured values from patent US20220017863A1, “SIRT2-ABLATED CHIMERIC T CELLS” (H. Lee Moffitt Cancer Center and Research Institute, Inc., priority 2019, published 2022).
“Also recorded” adds a separate entry of the source.

Experiments:
Type in all cases: cell-based
human TILs = test: IFN-γ ELISPOT on human TILs from NSCLC patients; details: AGK2 vs vehicle, 5 patient samples
human CD3+ T cells = test: IFN-γ ELISPOT on human CD3+ T cells from healthy donors; details: inhibitor vs vehicle, 48 hr
[1] = target: T1, Sirt2 deacetylase activity (Homo sapiens, UniProt Q8IXJ6); test: Western blot of acetylated α-tubulin in human CD3+ enriched T cells; details: 48 hr
T1 construct: endogenous in cells; host or cells: human CD3+ T cells enriched from PBMC of healthy donors
T1 sequence (Q8IXJ6 1-389): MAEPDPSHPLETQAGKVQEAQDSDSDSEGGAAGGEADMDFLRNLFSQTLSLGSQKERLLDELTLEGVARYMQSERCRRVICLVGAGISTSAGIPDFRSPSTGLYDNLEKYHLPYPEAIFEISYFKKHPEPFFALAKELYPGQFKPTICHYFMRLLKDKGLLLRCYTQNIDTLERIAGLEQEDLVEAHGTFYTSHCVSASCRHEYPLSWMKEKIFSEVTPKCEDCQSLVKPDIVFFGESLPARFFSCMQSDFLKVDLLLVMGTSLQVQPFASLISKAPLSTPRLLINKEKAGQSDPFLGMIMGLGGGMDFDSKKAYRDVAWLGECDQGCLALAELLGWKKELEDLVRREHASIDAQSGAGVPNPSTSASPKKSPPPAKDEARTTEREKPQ
Description: Human peripheral blood mononuclear cells (PBMC) were obtained from healthy donors by density gradient centrifugation using Ficoll-Paque™ PLUS Media (GE Healthcare). CD3^+ lymphocytes were negatively enriched using human Pan T cell isolation Kit™ (Miltenyi Biotec).
Whole cell lysates were prepared using lysis buffer (Pierce RIPA buffer, ThermoFisher Scientific) supplemented with cOmplete™ Protease Inhibitor Cocktail and PhosSTOP Phosphatase Inhibitor (Roche Applied Science).
Cell lysates (20 ug) or IP samples were loaded onto 10% SDS-PAGE and separated by electrophoresis followed by semi-dry transfer into polyvinylidene fluoride membranes (Immun-Blot PVDF membrane, Bio-Rad) using Trans-Blot Turbo transfer system (Bio-Rad). After transfer, the membranes were blocked at room temperature with Tris-buffered saline (TBS) containing 0.05% Tween-20 (TBST) and 5% (w/v) milk for 1 h and then incubated overnight at 4° C. with a specific primary antibody (indicated below). […] After washing 3 times with TBST, bound antibodies were detected by chemiluminescence using the Pierce™ ECL Western Blotting Substrate and the Super Signal West Femto Maximum Sensitivity Substrate kits (ThermoFisher Scientific). […]

SMILES: N#C/C(=C/c1ccc(-c2cc(Cl)ccc2Cl)o1)C(=O)Nc1cccc2ncccc12 [AGK2]
- IFN-γ production (effector function) (human TILs): increases
- IFN-γ production (effector function) (human CD3+ T cells): increases; also recorded: augments
- capacity to block Sirt2 deacetylase activity, monitored by acetylated α-tubulin levels [1]: confirmed; also recorded: validated
